In patent US20250361230A1, “LATS Inhibitors and Uses Thereof” (The USA, as Represented by the Secretary, Dept. of Heath …, priority 2022, published 2025):
pIC50: −log10 of the molar value.

How the values were obtained:
Type in all cases: biochemical
LATS1 = biological target: T1, LATS1 (Homo sapiens, UniProt O95835); test: RBC HotSpot kinase assay (33P-ATP, P81 filter-binding), LATS1; details: Table 28, biochemical kinase assay; read-out: LATS1 IC50
T1 sequence (O95835 1-1130): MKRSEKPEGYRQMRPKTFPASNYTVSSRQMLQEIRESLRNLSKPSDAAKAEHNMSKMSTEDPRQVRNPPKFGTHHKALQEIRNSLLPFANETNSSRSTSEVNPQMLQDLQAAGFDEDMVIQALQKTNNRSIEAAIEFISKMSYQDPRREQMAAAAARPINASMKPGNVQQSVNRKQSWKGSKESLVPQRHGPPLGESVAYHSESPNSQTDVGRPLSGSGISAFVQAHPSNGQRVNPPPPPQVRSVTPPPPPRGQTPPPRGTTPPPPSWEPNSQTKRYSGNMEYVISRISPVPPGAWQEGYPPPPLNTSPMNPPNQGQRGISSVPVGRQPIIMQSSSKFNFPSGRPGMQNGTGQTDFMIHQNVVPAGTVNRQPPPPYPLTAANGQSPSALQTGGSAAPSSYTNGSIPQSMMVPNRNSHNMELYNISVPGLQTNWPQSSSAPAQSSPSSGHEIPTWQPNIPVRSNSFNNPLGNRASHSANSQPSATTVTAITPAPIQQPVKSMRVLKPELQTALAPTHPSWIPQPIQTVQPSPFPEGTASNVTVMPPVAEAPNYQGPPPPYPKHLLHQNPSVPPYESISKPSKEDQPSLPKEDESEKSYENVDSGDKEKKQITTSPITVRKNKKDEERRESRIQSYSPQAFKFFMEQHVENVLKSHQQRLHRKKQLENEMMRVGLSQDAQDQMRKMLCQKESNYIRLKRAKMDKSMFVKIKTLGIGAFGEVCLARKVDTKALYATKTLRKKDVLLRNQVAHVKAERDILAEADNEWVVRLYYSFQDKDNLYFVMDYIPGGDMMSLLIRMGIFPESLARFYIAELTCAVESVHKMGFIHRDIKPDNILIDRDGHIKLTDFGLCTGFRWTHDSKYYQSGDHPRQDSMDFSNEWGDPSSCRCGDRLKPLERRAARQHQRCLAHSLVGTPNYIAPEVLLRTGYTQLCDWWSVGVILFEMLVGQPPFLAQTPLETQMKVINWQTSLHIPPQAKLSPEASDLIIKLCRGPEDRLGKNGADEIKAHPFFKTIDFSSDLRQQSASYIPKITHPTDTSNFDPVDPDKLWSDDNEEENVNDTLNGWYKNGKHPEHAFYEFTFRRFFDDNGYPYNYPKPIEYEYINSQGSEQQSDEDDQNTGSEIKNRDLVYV
Summary of the method: (§1)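 Radiometric 33P-ATP kinase reaction in 20 mM Hepes pH 7.5, 10 mM MgCl2, 1 mM EGTA, 0.01% Brij35, 0.02 mg/ml BSA, 0.1 mM Na3VO4, 2 mM DTT, 1% DMSO. Compound preincubated with kinase and substrate 20 min, then 2 h at room temperature; P81 filter-binding read-out. IC50 (nM) from 10-point singlet curves.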

LATS2 = biological target: T2, LATS2 (Homo sapiens, UniProt Q9NRM7); test: RBC HotSpot kinase assay (33P-ATP, P81 filter-binding), LATS2; details: Table 28, biochemical kinase assay; read-out: LATS2 IC50
T2 sequence (Q9NRM7 1-1088): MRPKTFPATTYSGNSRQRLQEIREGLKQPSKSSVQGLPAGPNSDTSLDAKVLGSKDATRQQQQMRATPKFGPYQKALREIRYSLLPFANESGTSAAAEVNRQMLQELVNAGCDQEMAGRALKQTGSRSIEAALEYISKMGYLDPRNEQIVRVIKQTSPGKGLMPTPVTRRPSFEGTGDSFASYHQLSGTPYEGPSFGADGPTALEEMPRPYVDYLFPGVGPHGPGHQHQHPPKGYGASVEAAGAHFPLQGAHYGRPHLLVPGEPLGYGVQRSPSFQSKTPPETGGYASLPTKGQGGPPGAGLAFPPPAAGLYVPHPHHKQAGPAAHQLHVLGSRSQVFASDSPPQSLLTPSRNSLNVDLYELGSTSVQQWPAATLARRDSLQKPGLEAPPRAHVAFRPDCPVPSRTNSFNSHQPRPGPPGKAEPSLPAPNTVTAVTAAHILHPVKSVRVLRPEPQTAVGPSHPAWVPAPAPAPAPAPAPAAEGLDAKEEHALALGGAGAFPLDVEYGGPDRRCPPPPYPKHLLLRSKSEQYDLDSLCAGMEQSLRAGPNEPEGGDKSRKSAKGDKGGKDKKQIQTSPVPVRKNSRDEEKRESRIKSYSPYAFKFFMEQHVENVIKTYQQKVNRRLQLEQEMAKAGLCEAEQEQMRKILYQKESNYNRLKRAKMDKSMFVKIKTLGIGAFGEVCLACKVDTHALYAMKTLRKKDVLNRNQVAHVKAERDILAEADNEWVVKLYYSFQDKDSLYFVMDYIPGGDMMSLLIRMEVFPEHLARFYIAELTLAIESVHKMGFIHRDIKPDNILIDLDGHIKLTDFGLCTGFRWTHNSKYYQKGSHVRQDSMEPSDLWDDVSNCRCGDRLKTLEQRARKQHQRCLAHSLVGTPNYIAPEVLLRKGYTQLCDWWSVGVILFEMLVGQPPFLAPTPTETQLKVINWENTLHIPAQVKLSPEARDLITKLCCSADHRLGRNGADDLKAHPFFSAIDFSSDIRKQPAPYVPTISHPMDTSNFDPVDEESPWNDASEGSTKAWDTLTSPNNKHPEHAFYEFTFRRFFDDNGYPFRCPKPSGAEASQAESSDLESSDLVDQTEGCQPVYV
Summary of the method: as §1

AKT = AKT (Homo sapiens, UniProt P31749); test: RBC HotSpot kinase assay (33P-ATP, P81 filter-binding), AKT; details: Table 28, biochemical kinase assay; read-out: AKT IC50
AKT, sequence (P31749 whole entry): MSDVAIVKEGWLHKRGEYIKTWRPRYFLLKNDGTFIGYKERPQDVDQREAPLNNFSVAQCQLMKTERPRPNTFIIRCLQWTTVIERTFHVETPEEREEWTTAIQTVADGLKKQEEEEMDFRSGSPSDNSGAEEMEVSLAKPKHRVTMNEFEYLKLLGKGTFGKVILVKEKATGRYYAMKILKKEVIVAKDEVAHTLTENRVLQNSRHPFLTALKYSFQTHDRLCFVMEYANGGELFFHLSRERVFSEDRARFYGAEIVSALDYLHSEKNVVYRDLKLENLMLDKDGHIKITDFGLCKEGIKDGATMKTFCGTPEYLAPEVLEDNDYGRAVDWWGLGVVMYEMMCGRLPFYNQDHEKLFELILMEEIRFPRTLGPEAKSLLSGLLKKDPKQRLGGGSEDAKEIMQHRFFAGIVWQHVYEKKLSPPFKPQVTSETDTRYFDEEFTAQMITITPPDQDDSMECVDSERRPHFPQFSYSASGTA
Summary of the method: as §1

Row | pIC50 (LATS1) | pIC50 (LATS2) | pIC50 (AKT) | SMILES
1 | 7.80 | 7.90 | 6.83 | C[C@@H]1CNC[C@H](C)[C@@]1(O)c1ccc(-c2ccnc3[nH]cc(F)c23)cc1 [Compound 2, (3R,4s,5S)-4-(4-(3-fluoro-1H-pyrrolo[2,3-b]pyridin-4-yl)phenyl)-3,5-dimethylpiperidin-4-ol]
2 | 7.28 | 6.69 | 5.48 | C[C@@H]1CNC[C@H](C)[C@@]1(O)c1ccc(-c2ccnc3[nH]cc(F)c23)nc1 [Compound 8, (3S,4s,5R)-4-(6-(3-fluoro-1H-pyrrolo[2,3-b]pyridin-4-yl)pyridin-3-yl)-3,5-dimethylpiperidin-4-ol]
3 | 8.07 | 8.14 | 6.44 | C[C@@H]1CNC[C@H](C)[C@@]1(O)c1c(F)cc(-c2ccnc3[nH]cc(F)c23)cc1F [Compound 13]
4 | 8.27 | 8.26 | 6.95 | C[C@@H]1CNC[C@H](C)[C@@]1(O)c1ccc(-c2ccnc3[nH]cc(F)c23)cc1OC(F)(F)F [Compound 14, (3S,4s,5R)-4-(4-(3-fluoro-1H-pyrrolo[2,3-b]pyridin-4-yl)-2-(trifluoromethoxy)phenyl)-3,5-dimethylpiperidin-4-ol]
5 | 7.96 | 7.92 | 5.97 | C[C@@H]1CN(Cc2ccccn2)C[C@H](C)[C@@]1(O)c1c(F)cc(-c2ccnc3[nH]cc(F)c23)cc1F [Compound 17, (3S,4s,5R)-4-(2,6-difluoro-4-(3-fluoro-1H-pyrrolo[2,3-b]pyridin-4-yl)phenyl)-3,5-dimethyl-1-(pyridin-2-ylmethyl)piperidin-4-ol]
6 | 8.96 | 8.39 | 6.30 | C[C@@H]1CN(C)C[C@H](C)[C@@]1(O)c1cnc(-c2ccnc3[nH]cc(F)c23)cc1Cl [Compound 22, (3S,4s,5R)-4-(4-chloro-6-(3-fluoro-1H-pyrrolo[2,3-b]pyridin-4-yl)pyridin-3-yl)-1,3,5-trimethylpiperidin-4-ol]
7 | 8.24 | 8.24 | 6.43 | Cc1cc(-c2ccnc3[nH]cc(F)c23)ccc1[C@@]1(O)[C@H](C)CN(C2COC2)C[C@@H]1C [Compound 24, (3S,4s,5R)-4-(4-(3-fluoro-1H-pyrrolo[2,3-b]pyridin-4-yl)-2-methylphenyl)-3,5-dimethyl-1-(oxetan-3-yl)piperidin-4-ol]
8 | 8.89 | 8.66 | 7.36 | Cc1cc(-c2ccnc3[nH]cc(F)c23)ccc1[C@@]1(O)[C@H](C)CN(C(C)C)C[C@@H]1C [Compound 29, (3S,4s, 5R)-4-(4-(3-fluoro-1H-pyrrolo[2,3-b]pyridin-4-yl)-2-methylphenyl)-1-isopropyl-3,5-dimethylpiperidin-4-ol]
9 | 8.23 | 8.05 | 6.16 | Cc1cc(-c2ccnc3[nH]cc(F)c23)cc(F)c1C1(O)[C@H](C)CN(C2COC2)C[C@@H]1C (stereo partly drawn) [Compound 30, (3S,5R)-4-(2-fluoro-4-(3-fluoro-1H-pyrrolo[2,3-b]pyridin-4-yl)-6-methylphenyl)-3,5-dimethyl-1-(oxetan-3-yl)piperidin-4-ol]
10 | 8.17 | 8.20 | 6.89 | C[C@@H]1CN(C2CCS(=O)(=O)CC2)C[C@H](C)C1(O)c1c(F)cc(-c2ccnc3[nH]cc(F)c23)cc1F (stereo partly drawn) [Compound 31, 4-((3S,5R)-4-(2,6-difluoro-4-(3-fluoro-1H-pyrrolo[2,3-b]pyridin-4-yl)phenyl)-4-hydroxy-3,5-dimethylpiperidin-1-yl)tetrahydro-2H-thiopyran 1,1-dioxide]
11 | 7.71 | 7.61 | 6.67 | C[C@@H]1CN(C)C[C@H](C)[C@@]1(O)c1ccc(-c2ccnc3[nH]cc(F)c23)cc1 [Compound 39, (3R,4s,5S)-4-(4-(3-fluoro-1H-pyrrolo[2,3-b]pyridin-4-yl)phenyl)-1,3,5-trimethylpiperidin-4-ol]
12 | 7.21 | 6.57 | 5.38 | C[C@@H]1CN(C)C[C@H](C)[C@@]1(O)c1ccc(-c2ccnc3[nH]cc(F)c23)nc1 [Compound 41, (3R,4s,5S)-4-(6-(3-fluoro-1H-pyrrolo[2,3-b]pyridin-4-yl)pyridin-3-yl)-1,3,5-trimethylpiperidin-4-ol]
13 | 8.47 | 8.01 | 5.93 | C[C@@H]1CN(C2COC2)C[C@H](C)[C@@]1(O)c1c(F)cc(-c2ccnc3[nH]cc(F)c23)cc1F [Compound 45, (3S,4s,5R)-4-(2,6-difluoro-4-(3-fluoro-1H-pyrrolo[2,3-b]pyridin-4-yl)phenyl)-3, S-dimethyl-1-(oxetan-3-yl)piperidin-4-ol]
14 | 8.77 | 8.40 | 6.45 | C[C@@H]1CN(C2CCC2)C[C@H](C)[C@@]1(O)c1c(F)cc(-c2ccnc3[nH]cc(F)c23)cc1F [Compound 46, (3R,4s,5S)-1-cyclobutyl-4-(2,6-difluoro-4-(3-fluoro-1H-pyrrolo[2,3-b]pyridin-4-yl)phenyl)-3,5-dimethylpiperidin-4-ol]
15 | 8.54 | 7.79 | 5.21 | Cc1cc(-c2ccnc3[nH]cc(F)c23)ncc1[C@@]1(O)[C@H](C)CN(C2CCC2)C[C@@H]1C [Compound 48, (3R,4s,5S)-1-cyclobutyl-4-(6-(3-fluoro-1H-pyrrolo[2,3-b]pyridin-4-yl)-4-methylpyridin-3-yl)-3,5-dimethylpiperidin-4-ol]

Row | SMILES | pIC50 (LATS1) | pIC50 (LATS2) | pIC50 (AKT)
16 | C[C@@H]1CNC[C@H](C)[C@@]1(O)c1ccc(-c2ccnc3[nH]cc(F)c23)cc1Cl [Compound 1, (3S,4S,5R)-4-(2-chloro-4-(3-fluoro-1H-pyrrolo[2,3-b]pyridin-4-yl)phenyl)-3,5-dimethylpiperidin-4-ol] | 7.95 | 7.84 | 7.81
17 | C[C@@H]1CNC[C@H](C)[C@@]1(O)c1ccc(-c2ccnc3[nH]cc(F)c23)cc1F [Compound 7, (3S,4s,5R)-4-(2-fluoro-4-(3-fluoro-1H-pyrrolo[2,3-b]pyridin-4-yl)phenyl)-3,5-dimethyl piperidin-4-ol] | 7.80 | 8.20 | 6.72
18 | Cc1cc(-c2ccnc3[nH]cc(F)c23)ccc1[C@@]1(O)[C@H](C)CNC[C@@H]1C [Compound 9, (3S,4s,5R)-4-(4-(3-fluoro-1H-pyrrolo[2,3-b]pyridin-4-yl)-2-methylphenyl)-3,5-dimethylpiperidin-4-ol] | 8.03 | 8.18 | 7.05
